# Source: patent publication US9895363B2, “Methods for modulating function of proliferating cell nuclear antigen (PCNA) and treating cancer with PCNA-targeting compounds” (University of Cincinnati, priority 2010, dated 2018)
# Columns and labels:
# PCNA = molecular target: T1, PCNA (Homo sapiens, UniProt P12004); test: Euchromatin- and heterochromatin-associated PCNA; format: cell-based; settings: PC-3, 0.5 μM, 8 H; FIG. 12
# T1 construct: endogenous PCNA was knocked down with transfection of PCNA-specific siRNA; endogenous in cells; host or cells: PC-3
# T1 sequence (P12004 whole entry): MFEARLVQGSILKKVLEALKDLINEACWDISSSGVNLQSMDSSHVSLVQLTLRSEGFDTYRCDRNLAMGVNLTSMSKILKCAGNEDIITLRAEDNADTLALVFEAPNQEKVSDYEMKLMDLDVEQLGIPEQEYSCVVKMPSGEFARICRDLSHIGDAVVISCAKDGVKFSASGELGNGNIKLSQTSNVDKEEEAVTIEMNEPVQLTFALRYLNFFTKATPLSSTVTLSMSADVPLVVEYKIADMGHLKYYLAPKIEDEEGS
# Method: Differential effects of PCNA-I1 on the level of euchromatin- (often under active gene transcription) and heterchromatin (often under limited gene transcription) associated PCNA were also investigated. Specifically, PC-3 cells were treated for 8 H with 0.5 μM of PCNA-I1 and PCNA was extracted by procedures known in the art with a combination of limited digestion with micrococcal nuclease and treatment with EDTA to obtain total (S1), euchromatin-associated (S2), and heterochromatin-associated (S3). The extracts were subjected to western blotting analysis.
# A375 melanoma cells = test: Growth inhibition by MTT staining, A375; format: cell-based; settings: A-375, 96 h, Human, treated four days
# Method: Growth inhibitory effects of PCNA-I1 and PCNA-I2 were assessed in human cancer cell lines, mouse cancer cell lines, immortalized mouse cell lines, and human primary cell lines. Specifically, growth inhibitory effects of PCNA-I1 and PCNA-I2 were assessed using MTT staining in the following cells lines: 1) human cancer cell lines including LNCaP (androgen receptor […]), 22Rv1, DU-145, LAPC-4, and PC-3 (androgen receptor […]) prostate cancer cells; MCF-7 and T47D breast cancer cells; A375 and MDA-MB435 melanoma cells; 2) mouse cancer cell lines including TRAMP-C2RE3 prostate cancer cells, B16 and K1735 melanoma cells, UV2237 fibrosarcoma cells, and CT-26 colon cancer cells; 3) immortalized mouse lung cell lines and mouse endothelial cell lines; and 4) primary human cell lines including umbilical endothelial cells (HUVEC, PromoCell, Heidelberg, Germany), primary bone marrow mesenchymal stem cells (HuMSC, PromoCell), primary human mammary epithelial cells (HuBrEC, Lonza, Walkersville, Md.), primary human prostate epithelial cells (HuPrEC, Lonza), and primary mouse spleen lymphocytes (isolated in this laboratory), and primary mouse bone marrow stromal cells (isolated in this laboratory). […]
# IC50 values were derived from growth inhibition curves. […] Inhibition of cell growth was calculated using the formula: growth inhibition (%)=(1−A570 of treated/A570 of control)×100. […]
# PC-3 cells = test: Cell cycle distribution by flow cytometry, PC-3; format: cell-based, Human
# Method: The effects of PCNA inhibitors on cell cycle progression were investigated via flow cytometry analysis. Specifically, PC-3 cells were plated into 60 mm plates at 2×10^5 cells/plate and were allowed to attach overnight.
# The cells were rinsed with HBSS, detached by trypsinization, suspended in MEM-5% FBS, pelleted by centrifugation, resuspended in PI staining solution (PBS containing 50 μg/mL PI, 100 μg/mL RNase A, and 0.05% Triton X-100), and incubated for 45 min at 37° C. After washing with PBS, the cells were resuspended in PBS for flow cytometry analysis in an Epics-XL-MCL system (Beckman Coulter, Fullerton, Calif.). Thirty thousand cells at each time point were collected to determine their DNA content and to obtain flow cytometric fluorescence histograms (X-axis fluorescence, Y-axis cell number). The three fractions (G0/G1, G2/M and S) were quantified by using the Synchronization Wizard of ModFit LT Flow Cytometry Cell-cycle Analysis Softward (Verity Software House, Topsham, Me.).
# Flow cytometry analysis was also performed on cells in which endogenous PCNA was knocked down with transfection of PCNA-specific siRNA. Specifically, PC-3 cells were plated into a 60-mm plate at 2×10^5/plate in antibiotics-free medium and transfected with 200 pmol PCNA specific siRNA or control scrambled siRNA for 24 H using Lifectamine 2000. The cells were then cultured in SFM for 24 H, followed by incubation in fresh SFM or stimulation with medium supplemented with 5% FBS, and sampled at different times for analyses. The PC-3 cells were also subjected to western blot analysis. Specifically, cells were washed and scraped into a lysis buffer (1% Triton X-100, 20 mM Tris-HCl, pH 8.0, 137 mM NaCl, 10% glycerol, 2 mM EDTA, 1 mM PMSF, and a protease inhibitor cocktail) and analyzed by Western blotting analysis as described by Zhang et al. in Tumor-infiltrating Macrophages are Involved in Suppressing Growth and Metastasis of Human Prostate Cancer Cells by INF-beta Gene Therapy in Nude Mice; Clin. Cancer Res. 2002; 8:29:2942-51. Samples were collected at 0 H (48 H after transfection), 24 H, 48 H, and 72 H, respectively.
# Fluorescence-activated cell sorting (FACS) analysis was performed on both PC-3 cells and LNCaP cells using PCNA-I1. Specifically, cells were treated with 1 or 10 μM PCNA-I1 and sampled for the flow cytometry analysis at 24 H, 48 H, and 72 H. Expression of DNA damage and apoptosis-related proteins in PC-3 cells and LNCaP cells was also determined. Cisplatin, a well-known drug that induces DNA damage and apoptosis, was included in the experiment. LNCaP cells were treated for 6 H, 12 H, or 18 H with 10 μM PCNA-I1, 10 μM cisplatin, or both.
# [1] = 1 μM, 5% FBS after serum starvation, FIGS. 4 and 5
smiles,measurement,setting,value
Cc1ccsc1C(=O)N/N=C/c1ccc2ccccc2c1O [PCNA-I1],Euchromatin- and heterochromatin-associated PCNA,PCNA,reduced both euchromatin- and heterochromatin protein 1α
same,IC50,A375 melanoma cells,290 nM
same,Cells in G1 phase,"PC-3 cells; 1 μM, 5% FBS after serum starvation, 24-72 H, FIGS. 4 and 5",partially attenuated the serum-stimulated G1 decrease at 24 H but led to significant G1 reductions at 48 H and 72 H
same,Cells in S phase,PC-3 cells; [1],significantly increased at 24 H
same,G2/M fraction of cells,PC-3 cells; [1],increased steadily at 48 H and 72 H
same,"Cell cycle effect, PC-3, 1 μM","PC-3 cells; 1 μM, FIG. 15",cell growth arrest at S and G2/M phases
same,"Cell cycle effect, PC-3, 10 μM","PC-3 cells; 10 μM, FIG. 15",more significant G1 arrest
same,"Apoptosis, PC-3","PC-3 cells; 1 or 10 μM, 24, 48, 72 H",Apoptosis was not observed
